The subject of series [1] is C. albicans. In words: microbe, parasite or virus in culture. The class given is cell-based, Candida albicans. Conditions: for MIC: Candida albicans, read-out: Minimum inhibitory concentration (MIC); for Fungal recovery after treatment: after 36 h of treatment.
In series [2] the test system is C. albicans. Format: cell-based, Candida albicans. The note with it: α-hederin 32 μg/mL; vs untreated control (CK).
The subject of another series is C. albicans biofilm. In words: Biofilm formation, total biofilm biomass by crystal violet staining. Format: cell-based. Conditions: Candida albicans, 24 h, read-out: Inhibition of early biofilm formation.
The test system of series [3] is C. albicans mature biofilm. In words: Mature biofilm, metabolic activity by XTT reduction. The class given is cell-based. The note with it: Candida albicans, 24 h, read-out: Inhibition rate of mature biofilms. On the technique in general: Tetrazolium dyes change colour on reduction, which living cells bring about.
Series [4] relates to C. albicans hyphal formation. The class given is cell-based, Candida albicans. The note with it: RPMI-1640 + 10 % FBS, 24 h.
Series [5] deals with ergosterol content in C. albicans. In words: Ergosterol content determination. Conditions: 16 μL/mL, compared to untreated control (CK). The class given is cell-based, Candida albicans.
Series [6] has as its system C. albicans. In words: Checkerboard dilution, fractional inhibitory concentration index. Format: cell-based, Candida albicans.
Series [7] relates to C. albicans. In words: Murine oral candidiasis model. The note with it: for Hemoglobin (HGB) level / Platelet (PLT) counts / White blood cell count (WBC): relative to Can group. Format: in vivo, BALB/c mice.
A further series concerns 293 T cells. Conditions: 24 h; for Cell survival rate: 128 μg/mL (highest tested).
The next series concerns Raw264.7 cells. Conditions: 24 h; for Cell survival rate: 128 μg/mL (highest tested).
In series [8] the test system is KB (human oral epidermoid carcinoma cells). Conditions: 24 h; for Cell survival rate: 128 μg/mL (highest tested).
Series [9] has as its system C. albicans. In words: Antifungal activity test of the 17 candidate compounds against C. albicans. Format: cell-based, Candida albicans. Conditions: tested at 12 h, 24 h and 36 h.
In series [10] the test system is C. albicans cell surface hydrophobicity. Format: cell-based, Candida albicans. The note with it: 128 μg/mL.
Where [11] appears, read: threshold concentration 1024 μg/mL.

≈ marks a conversion by molar mass, not a printed value. Entries after “also recorded” stand apart in the source; their conditions may differ. Where two headings read alike, the source gives them in different places.

Turning to `OC(Cn1cncn1)(Cn1cncn1)c1ccc(F)cc1F` [Fluconazole, reference compound], the “Fungal growth at highest concentration” value with C. albicans [1] (128 μg/mL, after 24 h) is “persistent fungal growth”. Moreover, in the series with C. albicans [1], the MIC is over 128 µg/mL and the “Fungal recovery after treatment” value is listed as “regrowth”. Further, the “Internal ultrastructure (TEM)” value with C. albicans [2] is listed as “no comparable ultrastructural damage”. In addition, the inhibition at 256 µg/mL with C. albicans biofilm came to 57%. For the same compound, the inhibition at 128 µg/mL in [3] stood at 17%. Besides, the Hyphal formation result in series [4] (256 μg/mL) was “failed to achieve complete suppression”. Moreover, the “Concentration reducing hyphal formation” value in series [4] was over 32 µg/mL. In [5], the “Reduction of ergosterol content” value stood at 45%. Further, the “Concentration in the combination showing additive effect” value in the series on C. albicans [6] stood at 1 µg/mL. Moreover, in the series on C. albicans [7] (128 μg/mL), the “Hemoglobin (HGB) level” value is reported as “restored”, the “Platelet (PLT) counts” value was “normalized” and the “White blood cell count (WBC)” value is reported as “restored”. For the same compound, the Body weight change entry with C. albicans [7] (mouse, in vivo) was “rebound in body weight”. Further, in the series on 293 T cells, the Cell survival rate entry is listed as “above 80%”. For the same compound, in the series on Raw264.7 cells, the Cell survival rate result is recorded as “above 80%”. In series [8], the Cell survival rate result was “above 80%”.
`CC(C)=CCC[C@](C)(O[C@@H]1O[C@H](CO[C@@H]2O[C@@H](CO)[C@H](O)[C@H]2O[C@@H]2OC[C@@H](O)[C@H](O)[C@H]2O)[C@@H](O)[C@H](O)[C@H]1O)[C@H]1CC[C@]2(C)[C@@H]1[C@H](O)C[C@@H]1[C@@]3(C)CC[C@H](O[C@@H]4O[C@H](CO)[C@@H](O)[C@H](O)[C@H]4O[C@@H]4O[C@H](CO)[C@@H](O)[C@H](O)[C@H]4O)C(C)(C)[C@@H]3CC[C@]12C` [Ginsenoside Ra2]: the “Anti − C. albicans activity” value in the series with C. albicans [9] (setting [11]) is over 1024 µg/mL.
Still for that read-out and setting: to `C[C@]12CCC[C@@]3(COC1=O)[C@@H]1CC[C@@H]4C[C@@]1(CC[C@@H]32)C[C@@]4(C)O` [Hypodiolide A] belongs over 1024 µg/mL.
The same measure, in the same setting: to `C=C(C)C(O)COc1c2occc2cc2ccc(=O)oc12` (centres unmarked) [Isogosferol] belongs over 1024 µg/mL; to `COc1cc2ccc(=O)oc2cc1O` [Scopoletol], over 1024 µg/mL.
In the case of `Oc1ccc2ccccc2c1N=Nc1ccc(N=Nc2ccccc2)cc1` [Sudam Ⅲ], in the series on C. albicans [9] (setting [11]), the “Anti − C. albicans activity” value was over 1024 µg/mL.
With `C[C@@H]1O[C@@H](O[C@H]2[C@H](O[C@H]3CC[C@@]4(C)[C@@H](CC[C@]5(C)[C@@H]4CC=C4[C@@H]6CC(C)(C)CC[C@]6(C(=O)O)CC[C@]45C)[C@]3(C)CO)OC[C@H](O)[C@@H]2O)[C@H](O)[C@H](O)[C@H]1O` [α-Hederin], the “Anti − C. albicans activity” value in the series on C. albicans [9] (setting [11]) was “below 128 μg/mL”. For the same compound, the C. albicans growth entry with C. albicans [1] (32 μg/mL) is “completely inhibited”. Moreover, in the series with C. albicans [1], the MIC worked out at 32 µg/mL (≈ 42.6 µM) and the “Fungal recovery after treatment” value is on record as “no fungal recovery observed”. In addition, the “Growth inhibition of C. albicans” value in the series with C. albicans [1] (at concentrations above 8 μg/mL within 24 h) stood at 50%. Further, in the series with C. albicans [2], the “Internal ultrastructure (TEM)” value was “severe cytoplasmic content loss and vacuolization, thinning and irregularity of cell walls/membranes and membrane discontinuities”. Moreover, in the series with C. albicans biofilm, the inhibition at 32 µg/mL stood at 55% and the inhibition at 256 µg/mL amounted to 75%. In addition, the inhibition at 128 µg/mL in series [3] is 20%. Further, in series [4] (128 μg/mL), the Hyphal formation result is on record as “partial inhibition”. Besides, the Hyphal formation result in series [4] (256 μg/mL) is “completely inhibit”. In addition, the “Reduction of cell surface hydrophobicity (CSH)” value in series [10] stood at 85%. Further, in series [5], the “Reduction of ergosterol content” value is on record as 90%. In the series with C. albicans [6] (checkerboard, fluconazole plus α-hederin), the “Concentration in the combination showing additive effect” value was 16 µg/mL. Also, in the series on C. albicans [7] (32 μg/mL), the “Hemoglobin (HGB) level” value is recorded as “restored”, the “Platelet (PLT) counts” value is listed as “normalized” and the “White blood cell count (WBC)” value is listed as “restored”. The “C. albicans colony count on tongue” value in the series with C. albicans [7] (128 μg/mL in drinking water, 5 days (128Hed)) was “no colonies were detected”. In the series with C. albicans [7] (128 μg/mL), the “Hemoglobin (HGB) level” value is on record as “restored”, the “Platelet (PLT) counts” value was “normalized” and the “White blood cell count (WBC)” value is “restored”. In the series with C. albicans [7] (mouse, in vivo), the Body weight change entry was “rebound in body weight; also recorded: slowest initial weight loss, followed by a consistent increase” and the “Fungal colonization of tongue (PAS staining)” value is “markedly reduced fungal colonization”. Moreover, in the series on C. albicans [7] (α-hederin-treated group, dose not stated), the “Fungal load on tongue (colony counts)” value is “significant decrease in fungal load”. Further, the Cell survival rate result with 293 T cells was “above 80%”. Besides, the Cell survival rate result in the series with Raw264.7 cells is on record as “above 80%”. Also, the Cell survival rate entry in series [8] is “above 80%”.
As for Elemicin, the “Anti − C. albicans activity” value in the series on C. albicans [9] is given as under 128 μL/mL; with C. albicans [9] (setting [11]), “below 128 μg/mL”. The “Minimum inhibitory concentration (MIC)” value in the series with C. albicans [1] (C. albicans CMCC(F)98001, YEPD, 37 °C, 24 h and 36 h) turned out to be 16 μL/mL. Besides, in the series on C. albicans [1] (at concentrations exceeding 0.5 μL/mL), the “Inhibition of C. albicans growth” value is recorded as 50 % −70. Further, the “Concentration with significant toxicity” value (with 293 T cells; with Raw264.7 cells; in series [8]) was “higher than 8 μL/mL” throughout.
In the case of Evodiamine, the “Anti − C. albicans activity” value with C. albicans [9] (setting [11]) was over 1024 µg/mL.
With Strictosamide, in the series on C. albicans [9] (setting [11]), the “Anti − C. albicans activity” value was over 1024 µg/mL.
On the same count and under the same terms, to Triptofordin belongs over 1024 µg/mL.

For orientation: inhibition means the change of the read-out against control, counted positive when it falls.
